The values that follow are results of earlier work, collected in patent publication US11771641B2, “Method for dyeing keratinous material by means of a premix of aminosilicone and a chromophoric compound” (Henkel AG & Co. KGaA, priority 2019, dated 2023).

For the data set the following is noted: 25° C.

`CCN(Cc1cccc(S(=O)(=O)O)c1)c1ccc(C(=C2C=CC(=[N+](CC)Cc3cccc(S(=O)(=O)O)c3)C=C2)c2ccccc2S(=O)(=O)[O-])cc1` [Acid Blue 9]: the solubility in water result is “more than 20 % by weight”.

On to `O=S(=O)(O)c1ccc(N=Nc2c(O)ccc3ccccc23)cc1` [Acid Orange 7, 4-[(2-hydroxy-1-naphthyl)azo]benzene sulphonate], for which the solubility in water entry was “more than 7 g/L”.

Regarding `O=[N+]([O-])c1cc([N+](=O)[O-])c2ccc(S(=O)(=O)O)cc2c1O` [Acid Yellow 9, 8-hydroxy-5,7-dinitro-2-naphthalenesulfonic acid], the solubility in water result was “above 40 g/L”.

Regarding `O=C(O)C1=NN(c2ccc(S(=O)(=O)O)cc2)C(=O)C1N=Nc1ccc(S(=O)(=O)O)cc1` (stereo not shown) [Acid Yellow 23, 4,5-dihydro-5-oxo-1-(4-sulfophenyl)-4-((4-sulfophenyl)azo)-1H-pyrazole-3-carboxylic acid], the “solubility in water (in words)” value is reported as “highly soluble”.
